Results published in PMC10913065, “Rapid sp^3-Enriched Scaffold Generation via a Selective Aziridine Amide Ring-Opening Reaction” (The Journal of Organic Chemistry, 2024).
In brackets after ≈: the same amount, converted by molar mass.

Experiment: Kinetic solubility assay (adapted shake flask method, McIlvaine buffer)
Assay type: physicochemical
Conditions: pH 6.8, aqueous buffer, kinetic from dmso stock
Experimental: 10. Kinetic Solubility assay
Kinetic Solubility assay protocol
Adapted standard shake flask method to run in 1 mL 96-deep-well plates at a concentration of 100 µM in McIlvaine Buffer at pH values of 6.8 from 10 mM DMSO stock solutions.
Compounds are prepared in triplicate and incubated in buffer at room temperature for 18 hours while shaking at 700 RPM. After incubation the 96-deep-well plate is centrifuged at 5000 g for 10 minutes, half of the volume is transferred to another deep well plate and centrifuged again at 5000 g for 10 minutes. 200 µL are transferred from each well to a Greiner Bio-one 200 µL 96-well V-bottom plate and sealed. A six-point calibration curve is prepared for each compound ranging from 100 µM down to 0.5 µM. All samples are analyzed via UV-UHPLC on an Agilent 1290 Infinity (binary pump, auto-sampler, column compartment at 55 °C, and PDA) with a Phenomenex Kinetex EVO C18, 50 x 1 mm, 1.7 µm, 100 Å column, at 0.5 mL. Injections of 3 µL are analyzed with gradient elution using Milli-Q water with 0.05% trifluoroacetic acid (A1) and acetonitrile with 0.05% trifluoroacetic acid (B1) from 95:5 A1/B1 to 5:95 A1/B1 over 1.3 minutes with a 0.2 minute hold at 5:95 A1/B1. Wavelengths at 215 nm and 254 nm are monitored, peaks are integrated, and the peak area and peak height are used with linear regression analysis from the calibration curves to determine the solubility values.6 Kinetic Solubility assay data
A kinetic solubility for d, e, f, and g was calculated in the following Table.
Compound Kinetic solubility (µM, pH=6.8)
Table S7. Kinetic solubility for representative compounds.

[1] = pH=6.8, McIlvaine Buffer, 100 µM from 10 mM DMSO stock, room temperature, 18 hours, triplicate

solubility kinetic at 18 h (at neutral pH)	solubility kinetic at 18 h [1]	SMILES
5.74 µM (≈ 1.74 µg/mL)	–	Cc1ccccc1Oc1ccccc1NC(=O)c1ccccc1 [d, reference compound]
79.1 µM (≈ 24.5 µg/mL)	90.67 ± 0.32 µM (≈ 28.1 µg/mL)	Cc1ccccc1O[C@H]1CCNC[C@@H]1NC(=O)c1ccccc1 [e]
90.7 µM (≈ 26.9 µg/mL)	79.07 ± 0.44 µM (≈ 23.4 µg/mL)	Cc1ccccc1O[C@H]1CNC[C@@H]1NC(=O)c1ccccc1 [f]
92.2 µM (≈ 31.2 µg/mL)	–	Cc1ccccc1O[C@H]1CCCNCC[C@@H]1NC(=O)c1ccccc1 [g]
